# Activity calls are given as the source filed them. The rule behind the calls is not given here.
# Experiments:
# Histone deacetylase 4 = Histone deacetylase 4 (Homo sapiens, UniProt P56524); assay: Inhibition of HDAC4 (unknown origin) assessed as fluorescence intensity measured after 60 mins incubation at room temperature by trypsin-free microfluidic lab-on-a-chip assay
# Histone deacetylase 8 = target: T1, Histone deacetylase 8 (Homo sapiens, UniProt Q9BY41); assay: Inhibition of HDAC8 (unknown origin) assessed as fluorescence intensity measured after 60 mins incubation at room temperature by trypsin-free microfluidic lab-on-a-chip assay
# T1 sequence (Q9BY41 whole entry): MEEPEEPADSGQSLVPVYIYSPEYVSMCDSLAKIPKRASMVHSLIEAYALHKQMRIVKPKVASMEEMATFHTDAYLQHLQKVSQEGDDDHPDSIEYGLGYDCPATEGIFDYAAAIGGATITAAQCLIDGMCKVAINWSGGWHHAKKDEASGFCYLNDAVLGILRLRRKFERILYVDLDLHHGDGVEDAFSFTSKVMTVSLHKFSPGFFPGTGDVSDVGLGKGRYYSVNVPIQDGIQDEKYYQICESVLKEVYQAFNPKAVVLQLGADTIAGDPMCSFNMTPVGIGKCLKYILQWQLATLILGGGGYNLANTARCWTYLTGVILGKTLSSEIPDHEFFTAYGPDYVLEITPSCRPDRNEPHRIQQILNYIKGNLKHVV
# Histone deacetylase 3 [1] = target: T2, Histone deacetylase 3 (Homo sapiens, UniProt O15379); assay: Inhibition of HDAC3 in human HeLa cells assessed as increase in acetylated H3 at 30 uM measured after 24 hrs by Western blotting analysis; format: cell-based
# T2 sequence (O15379 whole entry): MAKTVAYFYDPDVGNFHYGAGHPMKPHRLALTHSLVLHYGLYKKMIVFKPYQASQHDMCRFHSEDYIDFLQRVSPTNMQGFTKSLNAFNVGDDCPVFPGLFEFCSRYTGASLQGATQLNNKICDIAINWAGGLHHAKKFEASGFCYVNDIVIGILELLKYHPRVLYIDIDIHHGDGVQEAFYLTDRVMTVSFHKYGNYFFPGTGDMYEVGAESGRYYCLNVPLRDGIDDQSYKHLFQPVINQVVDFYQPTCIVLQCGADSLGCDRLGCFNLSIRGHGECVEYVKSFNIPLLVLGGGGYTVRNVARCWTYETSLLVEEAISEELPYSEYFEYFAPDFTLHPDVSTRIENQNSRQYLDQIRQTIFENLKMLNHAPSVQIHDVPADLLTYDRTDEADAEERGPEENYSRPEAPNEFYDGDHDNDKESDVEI
# Histone deacetylase 2 = Histone deacetylase 2 (Homo sapiens, UniProt Q92769); assay: Inhibition of HDAC2 (unknown origin) assessed as fluorescence intensity measured after 60 mins incubation at room temperature by trypsin-free microfluidic lab-on-a-chip assay
# Chain of Histone deacetylase 2 (Q92769 whole entry): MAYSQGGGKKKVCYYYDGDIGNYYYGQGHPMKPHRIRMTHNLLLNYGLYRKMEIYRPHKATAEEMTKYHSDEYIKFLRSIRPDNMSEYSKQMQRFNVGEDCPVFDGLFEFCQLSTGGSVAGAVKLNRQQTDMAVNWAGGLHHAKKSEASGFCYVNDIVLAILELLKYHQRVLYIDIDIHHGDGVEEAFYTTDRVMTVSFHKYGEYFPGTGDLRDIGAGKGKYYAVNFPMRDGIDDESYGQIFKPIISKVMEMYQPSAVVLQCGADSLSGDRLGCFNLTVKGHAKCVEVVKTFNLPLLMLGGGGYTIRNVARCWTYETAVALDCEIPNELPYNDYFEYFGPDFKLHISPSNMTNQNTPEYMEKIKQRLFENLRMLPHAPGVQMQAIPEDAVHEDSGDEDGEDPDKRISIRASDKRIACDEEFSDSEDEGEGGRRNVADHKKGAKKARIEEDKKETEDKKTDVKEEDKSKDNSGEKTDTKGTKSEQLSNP
# Histone deacetylase 9 = Histone deacetylase 9 (Homo sapiens, UniProt Q9UKV0); assay: Inhibition of HDAC9 (unknown origin) assessed as fluorescence intensity measured after 60 mins incubation at room temperature by trypsin-free microfluidic lab-on-a-chip assay
# Chain of Histone deacetylase 9 (Q9UKV0 whole entry): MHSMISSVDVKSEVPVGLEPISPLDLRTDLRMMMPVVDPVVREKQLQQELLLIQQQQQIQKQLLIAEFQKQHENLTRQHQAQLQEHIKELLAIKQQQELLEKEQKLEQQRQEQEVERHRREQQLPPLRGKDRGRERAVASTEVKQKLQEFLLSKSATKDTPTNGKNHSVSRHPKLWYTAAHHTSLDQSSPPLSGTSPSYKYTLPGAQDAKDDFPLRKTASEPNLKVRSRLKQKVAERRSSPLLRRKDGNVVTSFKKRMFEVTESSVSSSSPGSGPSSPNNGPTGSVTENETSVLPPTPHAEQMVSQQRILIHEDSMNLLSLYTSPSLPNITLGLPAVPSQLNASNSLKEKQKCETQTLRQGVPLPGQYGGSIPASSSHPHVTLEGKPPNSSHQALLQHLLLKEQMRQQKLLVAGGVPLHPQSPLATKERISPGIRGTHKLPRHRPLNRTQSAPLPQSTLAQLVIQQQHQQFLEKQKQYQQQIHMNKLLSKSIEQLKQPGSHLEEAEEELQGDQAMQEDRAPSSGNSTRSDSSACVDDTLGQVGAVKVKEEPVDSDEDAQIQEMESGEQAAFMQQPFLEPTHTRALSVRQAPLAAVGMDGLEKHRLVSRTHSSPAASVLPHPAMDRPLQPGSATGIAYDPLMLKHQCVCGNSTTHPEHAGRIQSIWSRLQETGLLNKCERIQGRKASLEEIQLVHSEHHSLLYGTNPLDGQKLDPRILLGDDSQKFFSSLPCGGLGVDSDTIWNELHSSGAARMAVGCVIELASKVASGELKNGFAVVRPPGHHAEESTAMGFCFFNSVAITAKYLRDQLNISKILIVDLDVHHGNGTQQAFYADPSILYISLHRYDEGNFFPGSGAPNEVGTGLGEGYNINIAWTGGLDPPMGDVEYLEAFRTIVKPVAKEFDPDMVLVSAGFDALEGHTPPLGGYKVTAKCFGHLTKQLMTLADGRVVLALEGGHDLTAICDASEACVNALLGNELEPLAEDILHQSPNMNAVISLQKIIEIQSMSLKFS
# [2] = target: T3, Protein deacetylase HDAC6 (Homo sapiens, UniProt Q9UBN7); assay: Inhibition of HDAC6 (unknown origin) assessed as fluorescence intensity measured after 60 mins incubation at room temperature by trypsin-free microfluidic lab-on-a-chip assay
# T3 sequence (Q9UBN7 whole entry): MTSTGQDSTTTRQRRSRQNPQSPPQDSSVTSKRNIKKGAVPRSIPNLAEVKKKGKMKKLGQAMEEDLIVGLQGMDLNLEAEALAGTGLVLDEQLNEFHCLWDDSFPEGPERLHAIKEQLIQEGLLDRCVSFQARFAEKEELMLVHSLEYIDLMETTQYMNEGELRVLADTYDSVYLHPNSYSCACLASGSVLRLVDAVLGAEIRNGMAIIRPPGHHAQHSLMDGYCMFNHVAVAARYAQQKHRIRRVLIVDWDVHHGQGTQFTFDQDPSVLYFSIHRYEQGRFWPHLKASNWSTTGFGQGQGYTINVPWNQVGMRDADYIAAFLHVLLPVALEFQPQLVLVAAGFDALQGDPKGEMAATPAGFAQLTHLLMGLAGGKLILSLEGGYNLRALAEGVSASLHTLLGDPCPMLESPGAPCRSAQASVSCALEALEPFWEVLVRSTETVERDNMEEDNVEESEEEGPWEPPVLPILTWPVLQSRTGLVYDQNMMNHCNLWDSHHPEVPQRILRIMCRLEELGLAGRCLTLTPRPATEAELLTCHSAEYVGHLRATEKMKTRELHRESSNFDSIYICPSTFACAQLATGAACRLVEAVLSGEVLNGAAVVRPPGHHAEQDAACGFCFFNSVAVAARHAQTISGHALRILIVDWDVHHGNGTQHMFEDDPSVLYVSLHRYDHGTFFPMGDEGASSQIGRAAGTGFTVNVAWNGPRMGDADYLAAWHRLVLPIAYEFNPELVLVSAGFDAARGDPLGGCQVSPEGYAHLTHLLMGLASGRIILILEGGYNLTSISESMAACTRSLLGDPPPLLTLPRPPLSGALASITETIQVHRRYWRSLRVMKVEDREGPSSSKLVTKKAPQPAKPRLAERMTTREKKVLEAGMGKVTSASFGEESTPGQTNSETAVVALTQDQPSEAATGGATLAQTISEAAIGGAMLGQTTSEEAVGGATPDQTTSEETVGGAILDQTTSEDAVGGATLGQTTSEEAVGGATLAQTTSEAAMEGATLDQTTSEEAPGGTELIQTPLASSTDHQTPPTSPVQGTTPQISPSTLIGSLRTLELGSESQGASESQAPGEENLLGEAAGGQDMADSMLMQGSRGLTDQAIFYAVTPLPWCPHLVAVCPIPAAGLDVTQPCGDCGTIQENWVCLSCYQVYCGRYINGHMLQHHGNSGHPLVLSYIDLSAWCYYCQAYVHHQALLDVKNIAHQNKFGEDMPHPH
# [3] = target: T4, Protein deacetylase HDAC6 (Homo sapiens) (UniProt Q9UBN7); assay: Inhibition of HDAC6 in human HeLa cells assessed as increase in acetylated alpha-tubulin measured after 24 hrs by Western blotting analysis; format: cell-based
# T4 sequence (whole entry): T3 sequence (Q9UBN7 whole entry)
# Histone deacetylase 5 = Histone deacetylase 5 (Homo sapiens, UniProt Q9UQL6); assay: Inhibition of HDAC5 (unknown origin) assessed as fluorescence intensity measured after 60 mins incubation at room temperature by trypsin-free microfluidic lab-on-a-chip assay
# Chain of Histone deacetylase 5 (Q9UQL6 whole entry): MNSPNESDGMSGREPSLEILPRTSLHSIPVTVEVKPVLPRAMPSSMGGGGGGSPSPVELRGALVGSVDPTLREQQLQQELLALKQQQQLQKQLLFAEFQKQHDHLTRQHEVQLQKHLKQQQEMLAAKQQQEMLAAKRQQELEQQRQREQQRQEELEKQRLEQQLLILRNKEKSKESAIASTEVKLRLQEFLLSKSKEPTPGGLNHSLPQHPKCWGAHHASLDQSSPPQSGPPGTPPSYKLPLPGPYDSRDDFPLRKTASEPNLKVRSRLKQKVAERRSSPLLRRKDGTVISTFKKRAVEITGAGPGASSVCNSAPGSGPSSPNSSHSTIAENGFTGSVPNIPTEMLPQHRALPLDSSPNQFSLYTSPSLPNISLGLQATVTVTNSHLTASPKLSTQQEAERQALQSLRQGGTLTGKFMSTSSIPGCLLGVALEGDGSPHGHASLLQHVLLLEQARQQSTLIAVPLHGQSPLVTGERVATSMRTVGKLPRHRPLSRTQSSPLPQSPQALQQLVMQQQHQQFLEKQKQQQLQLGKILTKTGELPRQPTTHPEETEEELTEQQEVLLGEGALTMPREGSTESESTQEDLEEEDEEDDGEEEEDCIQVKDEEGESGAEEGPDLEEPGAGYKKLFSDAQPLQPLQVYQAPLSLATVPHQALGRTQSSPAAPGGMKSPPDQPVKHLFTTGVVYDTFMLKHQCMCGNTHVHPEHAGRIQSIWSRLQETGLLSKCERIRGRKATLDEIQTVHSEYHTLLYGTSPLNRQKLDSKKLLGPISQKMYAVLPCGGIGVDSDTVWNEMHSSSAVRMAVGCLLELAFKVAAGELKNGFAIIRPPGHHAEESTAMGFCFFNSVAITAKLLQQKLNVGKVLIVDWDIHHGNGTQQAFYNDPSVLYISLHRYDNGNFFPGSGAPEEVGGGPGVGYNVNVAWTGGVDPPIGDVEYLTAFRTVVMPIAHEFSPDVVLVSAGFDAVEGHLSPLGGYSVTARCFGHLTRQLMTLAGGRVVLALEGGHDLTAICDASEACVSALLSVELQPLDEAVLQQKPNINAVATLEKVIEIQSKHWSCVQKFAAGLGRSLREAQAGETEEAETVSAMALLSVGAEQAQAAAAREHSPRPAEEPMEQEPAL
# Histone deacetylase 3 [4] = target: T2, Histone deacetylase 3; assay: Inhibition of HDAC3 (unknown origin) assessed as fluorescence intensity measured after 60 mins incubation at room temperature by trypsin-free microfluidic lab-on-a-chip assay
# Histone deacetylase 1 = Histone deacetylase 1 (Homo sapiens, UniProt Q13547); assay: Inhibition of HDAC1 (unknown origin) assessed as fluorescence intensity measured after 60 mins incubation at room temperature by trypsin-free microfluidic lab-on-a-chip assay
# Chain of Histone deacetylase 1 (Q13547 whole entry): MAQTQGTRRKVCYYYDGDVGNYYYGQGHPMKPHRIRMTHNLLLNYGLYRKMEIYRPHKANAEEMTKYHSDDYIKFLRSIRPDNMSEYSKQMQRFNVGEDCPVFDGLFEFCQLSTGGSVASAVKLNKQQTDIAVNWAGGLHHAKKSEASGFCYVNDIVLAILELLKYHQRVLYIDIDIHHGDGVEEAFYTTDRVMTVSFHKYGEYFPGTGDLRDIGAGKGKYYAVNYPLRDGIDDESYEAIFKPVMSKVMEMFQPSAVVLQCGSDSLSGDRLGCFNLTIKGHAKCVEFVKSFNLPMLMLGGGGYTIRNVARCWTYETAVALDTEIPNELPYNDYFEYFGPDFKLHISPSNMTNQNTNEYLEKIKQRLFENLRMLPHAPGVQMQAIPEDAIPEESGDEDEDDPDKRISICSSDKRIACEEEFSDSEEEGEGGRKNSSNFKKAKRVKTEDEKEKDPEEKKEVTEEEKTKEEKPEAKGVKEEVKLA
# Chain of Histone deacetylase 4 (P56524 whole entry): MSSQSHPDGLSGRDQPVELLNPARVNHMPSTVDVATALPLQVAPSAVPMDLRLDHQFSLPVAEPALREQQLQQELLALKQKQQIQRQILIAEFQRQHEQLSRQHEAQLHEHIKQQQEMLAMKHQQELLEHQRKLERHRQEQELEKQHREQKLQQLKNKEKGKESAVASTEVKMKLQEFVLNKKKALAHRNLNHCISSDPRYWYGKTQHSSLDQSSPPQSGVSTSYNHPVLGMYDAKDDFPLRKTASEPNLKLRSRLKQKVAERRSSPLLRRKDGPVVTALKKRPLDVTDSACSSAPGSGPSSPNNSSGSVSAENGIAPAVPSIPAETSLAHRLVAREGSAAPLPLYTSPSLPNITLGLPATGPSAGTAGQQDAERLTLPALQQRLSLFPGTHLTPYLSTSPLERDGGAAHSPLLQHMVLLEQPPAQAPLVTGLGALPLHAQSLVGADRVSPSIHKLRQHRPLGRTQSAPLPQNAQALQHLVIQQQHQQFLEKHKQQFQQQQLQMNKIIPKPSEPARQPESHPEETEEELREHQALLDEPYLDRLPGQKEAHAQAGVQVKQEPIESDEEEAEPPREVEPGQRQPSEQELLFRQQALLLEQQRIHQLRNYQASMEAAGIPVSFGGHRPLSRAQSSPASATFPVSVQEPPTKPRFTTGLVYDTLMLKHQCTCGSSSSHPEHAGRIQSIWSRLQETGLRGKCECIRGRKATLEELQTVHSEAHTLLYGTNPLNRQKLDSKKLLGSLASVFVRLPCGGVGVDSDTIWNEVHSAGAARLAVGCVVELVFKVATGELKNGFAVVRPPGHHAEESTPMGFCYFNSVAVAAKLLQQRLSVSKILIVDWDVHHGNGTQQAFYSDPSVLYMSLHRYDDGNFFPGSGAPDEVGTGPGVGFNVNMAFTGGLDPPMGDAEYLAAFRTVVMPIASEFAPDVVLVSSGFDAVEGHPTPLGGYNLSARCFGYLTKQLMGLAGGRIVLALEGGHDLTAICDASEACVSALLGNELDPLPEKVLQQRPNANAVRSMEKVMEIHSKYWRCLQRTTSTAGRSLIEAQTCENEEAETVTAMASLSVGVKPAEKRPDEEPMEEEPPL
SMILES,IC50 (Histone deacetylase 4) [nM],IC50 (Histone deacetylase 8) [nM],inhibition (Histone deacetylase 3 [1]),IC50 (Histone deacetylase 2) [nM],IC50 [2] [nM],inhibition [3],IC50 (Histone deacetylase 9) [nM],IC50 (Histone deacetylase 5) [nM],IC50 (Histone deacetylase 3 [4]) [nM],IC50 (Histone deacetylase 1) [nM]
O=C(NO)c1ccc(C(=O)NCCc2ccccc2)cc1,> 33300,1150,–,–,–,–,–,–,–,–
O=C(NO)c1ccccc1 [BENZOHYDROXAMATE],> 33300,1920,inactive,7910,115,Active,> 33300,> 33300,7830,4730
O=C(NO)c1ccc(C(=O)Nc2ccccc2)cc1,> 33300,689,–,–,37,–,–,–,–,–
CNC(=O)c1ccc(C(=O)NO)cc1,> 33300,1950,inactive,–,28,Active,–,–,–,–
O=C(NO)C1CCCCC1,> 33300,3720,–,> 33300,376,–,–,–,–,–
O=C(NO)C1=CCCC1,21800,1090,inactive,1790,30,Dose-dependent effect,> 33300,18300,694,638
O=C(Cc1ccccc1)NO [PHENYLACETOHYDROXAMIC ACID],> 33300,11600,–,> 33300,–,–,–,–,–,–
O=C(CCc1ccccc1)NO,> 33300,2350,–,2720,448,–,–,–,–,–
CN1CCN(CCNC(=O)c2ccc(C(=O)NO)cc2)CC1,> 33300,20900,–,–,1360,–,–,–,–,–

# Now from value to compound, other results behind:
IC50 (Histone deacetylase 4) [nM],IC50 (Histone deacetylase 8) [nM],inhibition (Histone deacetylase 3 [1]),IC50 (Histone deacetylase 2) [nM],IC50 [2] [nM],inhibition [3],SMILES,IC50 (Histone deacetylase 9) [nM],IC50 (Histone deacetylase 5) [nM],IC50 (Histone deacetylase 3 [4]) [nM],IC50 (Histone deacetylase 1) [nM]
> 33300,1330,–,–,8,–,O=C(NO)c1ccc(C(=O)NCCc2ccncc2)cc1,–,–,–,–
19500,759,–,457,22,–,O=C(/C=C/c1ccccc1)NO,–,–,–,–
> 33300,1030,–,381,7,–,O=C(NO)c1ccc(C(=O)NCc2ccccc2)cc1,–,–,–,–
9130,431,inactive,1050,12,Active,O=C(NO)C1=CCCCC1,–,–,–,–

# Source: ChEMBL document CHEMBL2331470 (J Med Chem, 2013)
